The METLIN SMRT retention time set (Domingo-Almenara et al. 2019)

Assay: gradient 5% acetonitrile 3 min, to 50% in 2 min, to 85% in 15 min, held 3 min, 100 µL/min
Conditions: column: Zorbax Extend-C18 2.1 x 50 mm; eluents: water / acetonitrile, 0.1% formic acid
Summary of the method: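 A Zorbax Extend-C18 column (2.1 × 50 mm, 1.8 μm) run at 100 μL/min with water and acetonitrile, both containing 0.1% formic acid, separated mixtures of ~100 pure standards. The HPLC was coupled to a quadrupole time-of-flight mass spectrometer operated in positive and negative ionization mode, with dead and dwell volumes of 40 μL and 900 μL. Each retention time was taken from a computationally picked adduct peak that was then manually inspected.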

Row | Compound | RP-LC retention time [s]
1 | CC(C)CCN1CC(=O)N2Cc3[nH]c4ccccc4c3C[C@H]2C1=O | 825
2 | CC1CCCN(C(=O)c2cn(-c3cc(-c4nc(C(C)C)no4)ccn3)cn2)C1 (stereo not drawn) | 955
3 | CCCn1cc(C(=O)Nc2ccc(C)cc2)c(S(=O)(=O)N2CCSCC2)n1 | 1090
4 | CCOC(=O)Cc1csc(NC(=O)CSc2nnc3ccccn23)n1 | 617
5 | Cc1nc(-c2cn(C)c3ncccc23)sc1C(=O)Nc1ccc(F)c(F)c1 | 940
6 | COc1ccc(NC(=O)N2CCN(Cc3nc4cc(Cl)ccc4o3)CC2)cc1OC | 686
7 | CCc1ccc(S(=O)(=O)NCCOc2ccc(-c3ccco3)nn2)s1 | 804
8 | Cc1ccc(C)c(NS(=O)(=O)c2ccc(-c3nnc(C4CCC4)o3)o2)c1 | 960
9 | COc1cccc(CNC(=O)Cn2ccc3ccc(N4CCOCC4)nc32)c1 | 858
10 | CCCN1C(=O)c2cc(S(=O)(=O)Nc3cccc(F)c3)ccc2Oc2cccnc21 | 1060
11 | COc1cc(NC(=O)C2CCN(S(=O)(=O)c3c(C)nn(-c4ccccc4)c3C)CC2)cc(OC)c1 | 848
12 | CN(CCc1noc(-c2ccc(C(=O)NC3CCCC3)cc2)n1)C(=O)c1ccccc1F | 839
13 | CNC(=O)C1CN(S(=O)(=O)c2ccccc2)CC12CCCCC2 (stereo not drawn) | 776
14 | COCCN1C(=O)c2ccccc2C(C(=O)NCCc2ccc(F)cc2)C12CCCC2 (stereo not drawn) | 874
15 | Cc1cccc(CNC(=O)CN2C(=O)C3CCCCN3c3ccc(S(=O)(=O)N4CCCC4)cc32)c1 (stereo not drawn) | 1080
16 | O=C(NCCn1ncccc1=O)c1ccc(OCc2nc(-c3ccco3)cs2)cc1 | 690
17 | COc1cc(C2=NN(C(C)=O)C(c3cccnc3)O2)cc(OC)c1OC (stereo not drawn) | 701
18 | O=C(NCC(c1ccccc1)c1c[nH]c2ccccc12)NC1CCCCC1 (stereo not drawn) | 976
19 | CCS(=O)(=O)N1CCCN(C(=O)NC(C)(C)C)CC1 | 663
20 | CCOC(=O)C1=C(C)N(CC(=O)NC2CCCC2)c2ncnn2C1c1ccccc1 (stereo not drawn) | 666
21 | Cc1ccc(S(=O)(=O)N2CCC(n3cnnc3C(C)C)CC2)cc1F | 756
22 | COc1ccc(CNC(=O)Cn2cnc3c(sc4nc(-c5ccccc5)ccc43)c2=O)cc1 | 950

Row | Compound | RP-LC retention time [s]
23 | CCn1c(=O)n(CCc2ccccc2)c2cncnc21 | 715
24 | CC(C)Oc1ccc(-c2noc(CN3N=NC4C(=O)N(c5ccc(F)c(F)c5)C(=O)C43)n2)cc1 (stereo not drawn) | 1110
25 | COc1ccc(C(=S)N2CCN(c3ccccc3C)CC2)cc1 | 1260
26 | C=CCN1CCN(c2ccc3nnc(CCc4nc(-c5ccc(OC)cc5)no4)n3n2)CC1 | 603
27 | CCC1CCCCN1CCCNC(=O)c1c(N2CCCC2=O)c2cc(OC)ccc2n1C (stereo not drawn) | 638
28 | CC(C)(C)NC(=O)N1CCC(CNC(=O)CSc2ccc(F)cc2)CC1 | 715
29 | CCOc1ccc(N2CC(C#N)=C3c4cc(OC)c(OC)cc4CCN3C2)cc1 | 848
30 | Cc1nc(N2CCN(c3ncccn3)CC2)nc2c1C(=O)CC(/C=C/c1ccccc1)C2 (stereo not drawn) | 1290
31 | CCc1nc2cc(N3CCCC(C(=O)NC(C)c4cccnc4)C3)cnc2nc1CC (stereo not drawn) | 606
32 | CC1CCN(Cc2nc(-c3ccc(N4CCCC(C)C4)nc3)no2)CC1 (stereo not drawn) | 695
33 | CCc1nnc2nc(N3CCN(C(=O)c4ccc(Br)cc4)CC3)cc(C)n12 | 638
34 | COc1ccc(N2CCN(c3cc(SCC(=O)Nc4cccc(Cl)c4)ncn3)CC2)cc1 | 1030
35 | CN(CC1(C)CCOCC1)S(=O)(=O)c1ccc(Cl)s1 | 976
36 | Cc1ccc(-c2cc3c(=O)n(Cc4noc(CN5CCCC5)n4)ccn3n2)c(C)c1 | 686
37 | Cc1ccccc1-c1noc(CN2N=NC3C(=O)N(c4cccc(Cl)c4)C(=O)C32)n1 (stereo not drawn) | 996
38 | CCc1ccccc1NC(=O)Cn1nc2cc(C)nc(Nc3ccccc3)n2c1=O | 1050
39 | CC1=C(c2ccccc2)S(=O)(=O)N=C1N1CCCN(C(=O)c2sccc2C)CC1 | 721
40 | CN(C)CCCNC(=O)C1CCN(c2nc3ccc(-c4ccc(F)cc4)nc3s2)CC1 | 686
41 | CNC(=O)c1ccc(N2CCCN(Cc3ccccc3C)C2=O)cc1 | 700
42 | O=C(Nc1ccc(F)cc1F)N1CCC(n2cnc3cc(Cl)ccc3c2=O)CC1 | 806
43 | O=C(Cn1c(=O)oc2ccccc21)Nc1nc(-c2nc3ccccc3s2)cs1 | 866
44 | CCOC(=O)N1CCC(NC(=O)c2cn(-c3cccc(Cl)c3)nn2)CC1 | 795

Row | Compound | RP-LC retention time [s]
45 | CCN1C(=O)c2cc(C(=O)N3CCC(N4CCCCC4)CC3)nn2CC1(C)C(=O)NC1CCCC1 (stereo not drawn) | 604
46 | COCCN(CC(=O)N1CCc2sccc2C1COc1cccc(F)c1)C(=O)C1CCCC1 (stereo not drawn) | 999
47 | Cc1[nH]c(C(=O)N2CCC(CC(=O)NCCCN3CCCCC3)CC2)c(C)c1C | 606
48 | COc1cc(CNC(=O)Cn2ccc3c(=O)n(C)c(=O)n(C)c32)cc(OC)c1 | 662
49 | CC(C)n1c(=O)sc2cc(S(=O)(=O)N3CCC(C(=O)NCCN4CCCC4)CC3)ccc21 | 648
50 | CC(C)CCNC(=O)C1CCCN(C(=O)Nc2ccc(NC(=O)NC3CCCC3)cc2)C1 (stereo not drawn) | 762
51 | COc1ccccc1-c1noc(-c2nn(-c3ccc(Cl)cc3)ccc2=O)n1 | 832
52 | CC1CCc2nc(NC(=O)c3cc(Cl)sc3Cl)sc2C1 (stereo not drawn) | 1170
53 | COc1ccc(OC)c(S(=O)(=O)NCc2ccc3c(c2)CCN3C(=O)c2ccccc2)c1 | 896
54 | CCn1cc(-c2nc(CC(=O)Nc3ccccc3F)cs2)c2cccnc21 | 874
55 | COc1ccc(NC(=O)c2cc3c(s2)CN(C2CCCC2)C3)c(C)c1 | 614
56 | O=C(CN1C(=O)CCS(=O)(=O)c2ccccc21)Nc1ccc(C(F)(F)F)cc1 | 843
57 | CCOC(=O)c1[nH]c(C)c(CCC(=O)N2CCC(C(=O)NCCc3ccccc3)CC2)c1C | 795
58 | COC(=O)CNC(=O)NC(C(=O)N1CCc2ccccc21)c1ccccc1 (stereo not drawn) | 792
59 | Cc1cc(=O)oc2c(C)c(OCC(O)CN3CCC(C(N)=O)CC3)ccc12 (stereo not drawn) | 579
60 | Cc1ccc(S(=O)(=O)N2CCc3nc[nH]c3C2)cc1C | 611
61 | CCn1cc(-c2ccccc2)cc1C(=O)NCCN1CCCC1 | 670
62 | COc1ccc(CNC(=O)c2nc(N3CCOCC3)c3ccccc3n2)cc1 | 662
63 | O=C(CN1CCN(Cc2ccc(F)cc2)C1=O)NC1CC1 | 649
64 | Cc1ccc(-c2nc3n(CC(=O)NC(C)C)c4c(c(=O)n3n2)CCC4)cc1 | 733
65 | CC(C)Cn1nc(CNC(=O)c2cnccn2)c2ccccc21 | 826
66 | CCN(CC)CCNC(=O)c1cc(S(C)(=O)=O)ccc1OC | 617

Row | Compound | RP-LC retention time [s]
67 | Fc1ccc(-c2nnc(Cc3nc(-c4ccc(F)c(F)c4)no3)o2)cc1 | 1030
68 | CC(C)Cn1cc(S(=O)(=O)Nc2ccc(F)c(F)c2)c2cccnc21 | 994
69 | Cn1nc(C(=O)N2CCCC(C(=O)Nc3ccccc3)C2)c2c1CCN(C(=O)c1ccco1)C2 (stereo not drawn) | 717
70 | COc1ccc(C2C(C(=O)NCc3ccccn3)c3cc(OC)c(OC)cc3C(=O)N2C)cc1OC (stereo not drawn) | 595
71 | O=C(Nc1cccc(-c2cn3cccnc3n2)c1)c1ccc(Br)cc1 | 734
72 | CCn1cc(-c2ccc(C)cc2)cc1C(=O)NC(C)c1cccnc1 (stereo not drawn) | 736
73 | CCc1nccn1Cc1nc(-c2ccc(F)cc2)no1 | 625
74 | CN(C)c1cc(-n2cnc(C(=O)NCc3ccccc3Cl)c2)ncn1 | 813
75 | CCc1ccc(NC(=O)C2CCCN(c3ccc(=O)n(-c4cccc(Cl)c4)n3)C2)cc1 (stereo not drawn) | 922
76 | Fc1ccc(-c2nc(-c3ccc(-n4cccn4)nc3)no2)c(F)c1 | 1170
77 | O=C(Nc1ccc2nc3n(c(=O)c2c1)CCCC3)Nc1ccc(F)cc1F | 690
78 | CCC(=O)Nc1cccc(-c2noc(C3CCN(C(=O)CCc4c[nH]c5ccccc45)CC3)n2)c1 | 869
79 | CC(=O)Oc1cc2c(C(=O)NCC3CCCO3)c(C)oc2c2ccccc12 (stereo not drawn) | 809
80 | O=C(c1ccc(CN2C(=O)CCn3nc(-c4ccccc4)cc32)cc1)N1CCN(c2ccccn2)CC1 | 638
81 | O=C1Oc2ccccc2C(=O)/C1=C1/C=C(c2ccccc2)SS1 | 1210
82 | Cc1ccc2c(Nc3ccc4c(c3)OCCO4)c(C(=O)N3CCC(C)CC3)cnc2n1 | 649
83 | Cc1ccc(C)c(-c2nc(-c3ccc4c(c3)oc(=O)n4C)no2)c1 | 1220
84 | CCN(CC)C(=O)Cn1c(C2CC(=O)N(C3CCCC3)C2)nc2ccccc21 (stereo not drawn) | 657
85 | CCCn1nccc1-c1csc(S(=O)(=O)NC(C)(C)CC)c1 | 975
86 | O=C(c1cnn2c(-c3ccc4c(c3)OCO4)ccnc12)N1CCN(Cc2ccc3c(c2)OCO3)CC1 | 648
87 | COc1ccccc1-c1nnc(-c2cc(S(=O)(=O)N(C)C)ccc2Cl)o1 | 904
88 | CCn1cnc2ccc(-c3noc(-c4cccc(OC)c4)n3)cc21 | 788
